Laboratory results taken from patent publication US5618795A, “Dibekacin derivatives and arbekacin derivatives active against resistant bacteria, and the production thereof” (Zaidan Hojin Biseibutsu Kagaku Kenkyu Kai, priority 1992, dated 1997).
Values after ≈ are worked out from the molar mass of the structure shown. Where two headings read alike, the source gives them in different places.

Tests used:
[1] = P. J. L. Daniels et al.; cited from earlier work
Solubility in water = format: physicochemical
[2] = Acute toxicity, single intravenous administration to mice; format: in vivo; settings: mouse, in vivo; single intravenous administration; mice (ICR-strain, 4 weeks old, female); observations for two weeks; read-out: LD50
Excerpt: 50% Lethal dosages (LD50, observations for two weeks) of the new compounds of this invention as estimated upon single intravenous administration to mice (ICR-strain, 4 weeks old, female) are as follows:
50% Lethal dosages (LD50, observations for two weeks) of the new compounds of general formula (XVI) according to the seventh aspect of this invention as estimated upon single intravenous administration to mice (ICR-strain, 4 weeks old, female) are as follows: […]

[3] = system: clinically isolated strains of MRSA; experiment: Antibacterial MIC spectra against 50 clinically isolated strains of MRSA; format: cell-based, methicillin-resistant Staphylococcus aureus; settings: Staphylococcus aureus; for MIC90: 90% of the 50 MRSA strains inhibited, read-out: MIC90; for MIC: read-out: Antibacterial MIC spectra
Protocol: (§1) Minimum growth inhibitory concentrations (MIC) of each of 2"-amino-2"-deoxyarbekacin (Compound Ia), 2"-amino-5,2"-dideoxyarbekacin (Compound Ib), 2"-amino-2"-deoxydibekacin (Compound IIa) and 2"-amino-5,2"-dideoxydibekacin (Compound IIb) against various bacteria (20 strains) and against clinically isolated strains of MRSA (50 strains) were determined by standard serial dilution method on Muller-Hinton's agar medium (as estimated after cultivating at 27° C. for 18 hours), and the test results obtained are shown in TABLE 3 and TABLE 4, respectively.
Note:- MIC50 or MIC90 represents the concentration of tested
active compound at which 50% or 90% of the total numbers of the bacterial
strains tested were inhibited from their growth. DKB denotes dibekacin,
(§2) Minimum growth inhibitory concentrations (MIC) of each of 2"-amino-5,2"-dideoxy-5-epi-fluoroarbekacin (Compound XVIa) and 2"-amino-5,2"-dideoxy-5-epi-aminoarbekacin (Compound XVIb) against various bacteria (18 strains) and against clinically isolated strains of MRSA (50 strains) were determined by standard serial dilution method on Muller-Hinton's agar medium (as estimated after cultivation at 27° C. for 18 hours), and the test results obtained are shown in TABLE 5 and TABLE 6, respectively.

E. coli K-12 ML1410 = experiment: MIC by standard serial dilution method on Muller-Hinton's agar; format: cell-based; settings: Escherichia coli, K12ML1410; Table 3; 27° C., 18 hours
Protocol: as §1

B. cereus ATCC10702 = experiment: as above; format: cell-based; settings: Bacillus cereus
Protocol: as §1

[4] = system: Klebsiella pneumoniae PCI602; experiment: as above; format: cell-based
Protocol: as §1, §2

E. coli JR66/W677 = experiment: as above; format: cell-based; settings: Escherichia coli, JR66/W677, 18 h
Protocol: as §1, §2

E. coli K-12 ML1629 = experiment: as above; format: cell-based; settings: Escherichia coli
Protocol: as §1, §2

P. aeruginosa TI-13 = experiment: as above; format: cell-based; settings: Pseudomonas aeruginosa
Protocol: as §1, §2

Salmonella typhi T-63 = experiment: as above; format: cell-based; settings: Salmonella enterica, 18 hours
Protocol: as §1, §2

[5] = system: Providencia rettgeri GN311; experiment: as above; format: cell-based
Protocol: as §1, §2

S. aureus Smith = experiment: as above; format: cell-based; settings: Staphylococcus aureus, 27° C., 18 hours
Protocol: as §1, §2

Serratia marcescens = experiment: as above; format: cell-based; settings: 18 hours, read-out: MIC
Protocol: as §1, §2

[6] = system: Pseudomonas aeruginosa A3; experiment: as above; format: cell-based
Protocol: as §1, §2

P. aeruginosa PST1 = experiment: as above; format: cell-based; settings: Pseudomonas aeruginosa, 18 hours
Protocol: as §1, §2

Escherichia coli NIHJ = experiment: as above; format: cell-based; settings: 18 hours
Protocol: as §1, §2

[7] = system: Shigella dysenteriae JSI1910; experiment: as above; format: cell-based; settings: JSI1910, 18 h
Protocol: as §1, §2

[8] = system: Staphylococcus aureus FDA209P; experiment: as above; format: cell-based; settings: 18 hours
Protocol: as §1, §2

Proteus vulgaris OX19 = experiment: as above; format: cell-based
Protocol: as §1, §2

E. coli K-12 LA290 R55 = experiment: as above; format: cell-based; settings: Escherichia coli, K12LA290R55, 18 h
Protocol: as §1, §2

Bacillus subtilis PCI219 = experiment: as above; format: cell-based; settings: 18 hours
Protocol: as §1, §2

P. aeruginosa H9 = experiment: as above; format: cell-based; settings: Pseudomonas aeruginosa
Protocol: as §1, §2

S. epidermidis 109 = experiment: as above; format: cell-based
Protocol: as §1, §2

[9] = 50% of the 50 MRSA strains inhibited, 27° C., 18 hours, read-out: MIC50
[10] = range over 50 clinically isolated strains of MRSA, 27° C., 18 hours
[11] = K12ML1629, Table 3, 27° C., 18 hours, read-out: MIC
[12] = H9, Table 3, 27° C., 18 hours, read-out: MIC

Row | Structure (SMILES) | Solubility (Solubility in water) | LD50 at 336 h [2] | MIC50 [3, 9] | MIC90 ([3]; 27° C., 18 hours) | MIC [3, 10] | MIC (E. coli K-12 ML1410) | MIC ([4]; PCI602, 18 h) | MIC (E. coli JR66/W677) | MIC (E. coli K-12 ML1629; [11]) | MIC (P. aeruginosa TI-13; TI13, 18 h) | MIC (Salmonella typhi T-63; Table 3, 27° C.) | MIC (S. aureus Smith; Table 3) | MIC (Serratia marcescens; Table 3, 27° C.) | MIC (P. aeruginosa PST1; Table 3, 27° C.) | MIC (Escherichia coli NIHJ; Table 3, 27° C.) | MIC [7] | MIC ([8]; Table 3, 27° C.) | MIC (E. coli K-12 LA290 R55) | MIC (Bacillus subtilis PCI219; Table 3, 27° C.) | MIC (P. aeruginosa H9; [12]) | also measured
1 | CN[C@@H]1[C@@H](O)[C@@H](O[C@@H]2[C@H](N)[C@H](O[C@H]3OC(CN)=CC[C@H]3N)[C@@H](N)C[C@H]2N)OC[C@]1(C)O [5-epi-amino-5-deoxysisomicin] |  |  |  |  |  |  |  |  |  |  |  |  |  |  |  |  |  |  |  |  | antibacterial activity (in words) [1]: good antibacterial activity
2 | NC[C@@H]1CC[C@@H](N)[C@@H](O[C@H]2[C@H](O)[C@@H](O[C@H]3O[C@H](CO)[C@@H](O)[C@H](N)[C@H]3N)[C@H](N)C[C@@H]2N)O1 [Compound IIa, 2"-Amino-2"-deoxydibekacin] | easily soluble in water | > 100 mg/kg | 6.25 µg/mL (≈ 13.9 µM) | 25 µg/mL (≈ 55.5 µM) | 0.2 to 50 µg/mL (≈ 0.444 to 111 µM) | 1.56 µg/mL (≈ 3.46 µM) | 3.13 µg/mL (≈ 6.95 µM) | 3.13 µg/mL (≈ 6.95 µM) | 3.13 µg/mL (≈ 6.95 µM) | 3.13 µg/mL (≈ 6.95 µM) | 1.56 µg/mL (≈ 3.46 µM) | 0.39 µg/mL (≈ 0.866 µM) | 12.5 µg/mL (≈ 27.7 µM) | 50 µg/mL (≈ 111 µM) | 0.78 µg/mL (≈ 1.73 µM) | 3.13 µg/mL (≈ 6.95 µM) | 0.78 µg/mL (≈ 1.73 µM) | 1.56 µg/mL (≈ 3.46 µM) | ≤ 0.2 µg/mL | 6.25 µg/mL (≈ 13.9 µM) | MIC (B. cereus ATCC10702; ATCC10702, 18 h): 3.13 µg/mL (≈ 6.95 µM); MIC ([5]; GN311, 18 h): 1.56 µg/mL (≈ 3.46 µM); MIC ([6]; A3, 18 h): 1.56 µg/mL (≈ 3.46 µM); MIC (Proteus vulgaris OX19; OX19, 18 h): 1.56 µg/mL (≈ 3.46 µM); MIC (S. epidermidis 109; Staphylococcus epidermidis, 109, 18 h): 1.56 µg/mL (≈ 3.46 µM)
3 | NC[C@@H]1CC[C@@H](N)[C@@H](O[C@H]2C[C@@H](O[C@H]3O[C@H](CO)[C@@H](O)[C@H](N)[C@H]3N)[C@H](N)C[C@@H]2N)O1 [Compound IIb, 2"-Amino-5,2"-dideoxydibekacin] | easily soluble in water | 50 to 100 mg/kg |  | 25 µg/mL (≈ 57.5 µM) | 0.78 to 25 µg/mL (≈ 1.8 to 57.5 µM) | 3.13 µg/mL (≈ 7.2 µM) | 3.13 µg/mL (≈ 7.2 µM) | 6.25 µg/mL (≈ 14.4 µM) | 6.25 µg/mL (≈ 14.4 µM) | 3.13 µg/mL (≈ 7.2 µM) | 3.13 µg/mL (≈ 7.2 µM) | ≤ 0.2 µg/mL | 25 µg/mL (≈ 57.5 µM) | 100 µg/mL (≈ 230 µM) | 1.56 µg/mL (≈ 3.59 µM) | 6.25 µg/mL (≈ 14.4 µM) | 0.39 µg/mL (≈ 0.898 µM) | 3.13 µg/mL (≈ 7.2 µM) | ≤ 0.2 µg/mL | 12.5 µg/mL (≈ 28.8 µM) | MIC50 ([3]; MRSA, 18 h): 3.13 µg/mL (≈ 7.2 µM); MIC (B. cereus ATCC10702; ATCC10702, Table 3, 27° C., 18 hours, read-out: MIC): 1.56 µg/mL (≈ 3.59 µM); MIC ([5]; GN311, Table 3, 27° C., 18 hours, read-out: MIC): 1.56 µg/mL (≈ 3.59 µM); MIC ([6]; A3, Table 3, 27° C., 18 hours, read-out: MIC): 0.78 µg/mL (≈ 1.8 µM); MIC (Proteus vulgaris OX19; OX19, Table 3, 27° C., 18 hours, read-out: MIC): 1.56 µg/mL (≈ 3.59 µM); MIC (S. epidermidis 109; Staphylococcus epidermidis, 109, Table 3, 27° C., 18 hours, read-out: MIC): 0.78 µg/mL (≈ 1.8 µM)
4 | NCC[C@H](O)C(=O)N[C@@H]1C[C@H](N)[C@@H](O[C@H]2O[C@H](CN)CC[C@H]2N)[C@@H](F)[C@H]1O[C@H]1O[C@H](CO)[C@@H](O)[C@H](N)[C@H]1N [Compound XVIa, 2"-Amino-5,2"-dideoxy-5-epi-fluoroarbekacin] | easily soluble in water | > 100 mg/kg | 0.78 µg/mL (≈ 1.41 µM) | 1.56 µg/mL (≈ 2.82 µM) |  |  |  | 3.13 µg/mL (≈ 5.65 µM) |  |  |  |  |  |  |  | 3.13 µg/mL (≈ 5.65 µM) |  | 1.56 µg/mL (≈ 2.82 µM) |  |  | MIC ([3]; MRSA, 18 h): 0.39 to 3.13 µg/mL (≈ 0.704 to 5.65 µM); MIC ([4]; PCI602, Table 5, 27° C., 18 hours, read-out: MIC): 1.56 µg/mL (≈ 2.82 µM); MIC (E. coli K-12 ML1629; K12ML1629, 18 h): 3.13 µg/mL (≈ 5.65 µM); MIC (P. aeruginosa TI-13; TI13, Table 5, 27° C., 18 hours, read-out: MIC): 1.56 µg/mL (≈ 2.82 µM); MIC (Salmonella typhi T-63; Table 5, 27° C.): 0.78 µg/mL (≈ 1.41 µM); MIC ([5]; GN311, Table 5, 27° C., 18 hours, read-out: MIC): 1.56 µg/mL (≈ 2.82 µM); MIC (S. aureus Smith; Table 5): ≤ 0.2 µg/mL; MIC (Serratia marcescens; Table 5, 27° C.): 1.56 µg/mL (≈ 2.82 µM); MIC ([6]; A3, Table 5, 27° C., 18 hours, read-out: MIC): 0.78 µg/mL (≈ 1.41 µM); MIC (P. aeruginosa PST1; Table 5, 27° C.): 12.5 µg/mL (≈ 22.6 µM); MIC (Escherichia coli NIHJ; Table 5, 27° C.): 0.78 µg/mL (≈ 1.41 µM); MIC ([8]; Table 5, 27° C.): 0.78 µg/mL (≈ 1.41 µM); MIC (Proteus vulgaris OX19; OX19, Table 5, 27° C., 18 hours, read-out: MIC): 1.56 µg/mL (≈ 2.82 µM); MIC (Bacillus subtilis PCI219; Table 5, 27° C.): 0.39 µg/mL (≈ 0.704 µM); MIC (P. aeruginosa H9; H9, 18 h): 3.13 µg/mL (≈ 5.65 µM); MIC (S. epidermidis 109; Staphylococcus epidermidis, 109, Table 5, 27° C., 18 hours, read-out: MIC): 0.78 µg/mL (≈ 1.41 µM)
